Laboratory results: the supplement of paper PMC11208160

Assay: recombinant UMI read abundance after kanamycin selection (control-corrected) (log10(CPM+1)); higher = more efficient recombination; extreme values may be limits of the assay; sequences stand for … in AGTGCAGAGAAAATCGGCCAGTTTTCTCTGCCTGCAGTCCGCATGCCGTGGGACCCCTTGGGTTCTAACCTGTTGCCTAGATTTATGCAGCGGACTGCCTTTCTCCCAAAGTGATAAACCGG…AGGTTGGTTTCACT; site = the 11-nt donor
Outline: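 Reported values are log10(CPM+1) from a pooled Escherichia coli screen of donor and donor-binding-loop pairs for the IS621 bridge recombinase. Selection used IPTG (0.07 mM) plus kanamycin, against unselected plating, each in two replicates. Recombinant UMIs were amplified across the donor–target junction, sequenced, converted to CPM, averaged over replicates and scaled by control-derived factors.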
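Also: IS621 bridge recombinase in Escherichia coli cells against a fixed T5 target plasmid.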

| Sequence | recombinant UMI read abundance (log10) |
| --- | --- |
| AGGAAGACATGGACCGGTTTTCCCGGTAATCCGTATTTGCA (site AGGACGACTTC) | 0.00604 |
| AGGAAGACATGGACCGGTTTTCCCGGTAATCCGTATTTGCA (site AGGACGACTTG) | 0.36 |
| AGGAAGACATGGACCGGTTTTCCCGGTAATCCGTATTTGCA (site AGGACGGCTTG) | 0.00854 |
| AGGAAGACATGGACCGGTTTTCCCGGTAATCCGTATTTGCA (site AGGACTACTTG) | 0 |
| AGGAAGACATGGACCGGTTTTCCCGGTAATCCGTATTTGCA (site AGGAGCACTTG) | 0.0101 |
| AGGAAGACATGGACCGGTTTTCCCGGTAATCCGTATTTGCA (site AGGAGGACTGG) | 0 |
| AGGAAGACATGGACCGGTTTTCCCGGTAATCCGTATTTGCA (site AGGAGGACTTG) | 0 |
| AGGAAGACATGGACCGGTTTTCCCGGTAATCCGTATTTGCA (site AGGAGGACTTT) | 0.0142 |
| AGGAAGACATGGACCGGTTTTCCCGGTAATCCGTATTTGCA (site AGGAGGCCTTG) | 0 |
| AGGAAGACATGGACCGGTTTTCCCGGTAATCCGTATTTGCA (site AGGATAACTTG) | 0.855 |
| AGGAAGACATGGACCGGTTTTCCCGGTAATCCGTATTTGCA (site AGGATGACTCG) | 0.0201 |
| AGGAAGACATGGACCGGTTTTCCCGGTAATCCGTATTTGCA (site AGGATGACTTA) | 0.0119 |
| AGGAAGACATGGACCGGTTTTCCCGGTAATCCGTATTTGCA (site AGGATGACTTG) | 0.688 |
| AGGAAGACATGGACCGGTTTTCCCGGTAATCCGTATTTGCA (site AGGATGTCTTG) | 0 |
| AGGAAGACATGGACCGGTTTTCCCGGTAATCCGTATTTGCA (site AGGCAGACTAG) | 0 |
| AGGAAGACATGGACCGGTTTTCCCGGTAATCCGTATTTGCA (site AGGCAGACTTC) | 0.0244 |
| AGGAAGACATGGACCGGTTTTCCCGGTAATCCGTATTTGCA (site AGGCAGACTTG) | 1.49 |
| AGGAAGACATGGACCGGTTTTCCCGGTAATCCGTATTTGCA (site AGGCAGGCTTG) | 0.0104 |
| AGGAAGACATGGACCGGTTTTCCCGGTAATCCGTATTTGCA (site AGGCATACTTG) | 0 |
| AGGAAGACATGGACCGGTTTTCCCGGTAATCCGTATTTGCA (site AGGCCGACTTG) | 0.00452 |
| AGGAAGACATGGACCGGTTTTCCCGGTAATCCGTATTTGCA (site AGGGAAACTTG) | 0 |
| AGGAAGACATGGACCGGTTTTCCCGGTAATCCGTATTTGCA (site AGGGAGACTCG) | 0 |
| AGGAAGACATGGACCGGTTTTCCCGGTAATCCGTATTTGCA (site AGGGAGACTTA) | 0.00967 |
| AGGAAGACATGGACCGGTTTTCCCGGTAATCCGTATTTGCA (site AGGGAGACTTG) | 1.32 |
| AGGAAGACATGGACCGGTTTTCCCGGTAATCCGTATTTGCA (site AGGGAGTCTTG) | 0 |

| Sequence | recombinant UMI read abundance (log10) |
| --- | --- |
| AGGAAGACATGGACCGGTTTTCCCGGTAATCCGTATTTGCA (site AGGGTGACTTG) | 0.161 |
| AGGAAGACATGGACCGGTTTTCCCGGTAATCCGTATTTGCA (site AGGTACACTTG) | 1.06 |
| AGGAAGACATGGACCGGTTTTCCCGGTAATCCGTATTTGCA (site AGGTAGACTGG) | 0 |
| AGGAAGACATGGACCGGTTTTCCCGGTAATCCGTATTTGCA (site AGGTAGACTTG) | 1.88 |
| AGGAAGACATGGACCGGTTTTCCCGGTAATCCGTATTTGCA (site AGGTAGACTTT) | 0.0208 |
| AGGAAGACATGGACCGGTTTTCCCGGTAATCCGTATTTGCA (site AGGTAGCCTTG) | 0 |
| AGGAAGACATGGACCGGTTTTCCCGGTAATCCGTATTTGCA (site AGGTGGACTTG) | 0.577 |
| AGGAAGACATGGACCGGTTTTCCCGGTAATCCGTATTTGCA (site AGTAACACTTG) | 0.00423 |
| AGGAAGACATGGACCGGTTTTCCCGGTAATCCGTATTTGCA (site AGTAAGACTGG) | 0 |
| AGGAAGACATGGACCGGTTTTCCCGGTAATCCGTATTTGCA (site AGTAAGACTTG) | 1.25 |
| AGGAAGACATGGACCGGTTTTCCCGGTAATCCGTATTTGCA (site AGTAAGACTTT) | 0.006 |
| AGGAAGACATGGACCGGTTTTCCCGGTAATCCGTATTTGCA (site AGTAAGCCTTG) | 0 |
| AGGAAGACATGGACCGGTTTTCCCGGTAATCCGTATTTGCA (site AGTAGGACTTG) | 0.855 |
| AGGAAGACATGGACCGGTTTTCCCGGTAATCCGTATTTGCA (site AGTTAGACTTG) | 1 |
| AGGAAGACATGGACCGGTTTTCCCGGTAATCCGTATTTGCA (site ATCAAGACTTG) | 0.869 |
| AGGAAGACATGGACCGGTTTTCCCGGTAATCCGTATTTGCA (site ATGAAGACTAG) | 0 |
| AGGAAGACATGGACCGGTTTTCCCGGTAATCCGTATTTGCA (site ATGAAGACTTC) | 0.0122 |
| AGGAAGACATGGACCGGTTTTCCCGGTAATCCGTATTTGCA (site ATGAAGACTTG) | 1.43 |
| AGGAAGACATGGACCGGTTTTCCCGGTAATCCGTATTTGCA (site ATGAAGGCTTG) | 0 |
| AGGAAGACATGGACCGGTTTTCCCGGTAATCCGTATTTGCA (site ATGAATACTTG) | 0 |
| AGGAAGACATGGACCGGTTTTCCCGGTAATCCGTATTTGCA (site ATGACGACTTG) | 0 |
| AGGAAGACATGGACCGGTTTTCCCGGTAATCCGTATTTGCA (site ATGCAGACTTG) | 0.701 |
| AGGAAGACATGGACCGGTTTTCCCGGTAATCCGTATTTGCA (site CAGAAGACTTG) | 1.43 |
| AGGAAGACATGGACCGGTTTTCCCGGTAATCCGTATTTGCA (site CGGAACACTTG) | 0.912 |
| AGGAAGACATGGACCGGTTTTCCCGGTAATCCGTATTTGCA (site CGGAAGACTGG) | 0 |

| Sequence | recombinant UMI read abundance (log10) |
| --- | --- |
| AGGAAGACATGGACCGGTTTTCCCGGTAATCCGTATTTGCA (site CGGAAGACTTG) | 0.801 |
| AGGAAGACATGGACCGGTTTTCCCGGTAATCCGTATTTGCA (site CGGAAGACTTT) | 0.95 |
| AGGAAGACATGGACCGGTTTTCCCGGTAATCCGTATTTGCA (site CGGAAGCCTTG) | 0 |
| AGGAAGACATGGACCGGTTTTCCCGGTAATCCGTATTTGCA (site CGGAGGACTTG) | 0.505 |
| AGGAAGACATGGACCGGTTTTCCCGGTAATCCGTATTTGCA (site CGGTAGACTTG) | 1.27 |
| AGGAAGACATGGACCGGTTTTCCCGGTAATCCGTATTTGCA (site CGTAAGACTTG) | 0.977 |
| AGGAAGACATGGACCGGTTTTCCCGGTAATCCGTATTTGCA (site GGCAAGACTTG) | 2.22 |
| AGGAAGACATGGACCGGTTTTCCCGGTAATCCGTATTTGCA (site GGGAAGACTAG) | 0 |
| AGGAAGACATGGACCGGTTTTCCCGGTAATCCGTATTTGCA (site GGGAAGACTTC) | 0 |
| AGGAAGACATGGACCGGTTTTCCCGGTAATCCGTATTTGCA (site GGGAAGACTTG) | 0.614 |
| AGGAAGACATGGACCGGTTTTCCCGGTAATCCGTATTTGCA (site GGGAAGGCTTG) | 0 |
| AGGAAGACATGGACCGGTTTTCCCGGTAATCCGTATTTGCA (site GGGAATACTTG) | 0 |
| AGGAAGACATGGACCGGTTTTCCCGGTAATCCGTATTTGCA (site GGGACGACTTG) | 0.00563 |
| AGGAAGACATGGACCGGTTTTCCCGGTAATCCGTATTTGCA (site GGGCAGACTTG) | 0.837 |
| AGGAAGACATGGACCGGTTTTCCCGGTAATCCGTATTTGCA (site GTGAAGACTTG) | 0 |
| AGGAAGACATGGACCGGTTTTCCCGGTAATCCGTATTTGCA (site TCGAAGACTTG) | 1.81 |
| AGGAAGACATGGACCGGTTTTCCCGGTAATCCGTATTTGCA (site TGAAAGACTTG) | 1.06 |
| AGGAAGACATGGACCGGTTTTCCCGGTAATCCGTATTTGCA (site TGGAAAACTTG) | 0.756 |
| AGGAAGACATGGACCGGTTTTCCCGGTAATCCGTATTTGCA (site TGGAAGACTCG) | 0.00521 |
| AGGAAGACATGGACCGGTTTTCCCGGTAATCCGTATTTGCA (site TGGAAGACTTA) | 0.696 |
| AGGAAGACATGGACCGGTTTTCCCGGTAATCCGTATTTGCA (site TGGAAGACTTG) | 1.16 |
| AGGAAGACATGGACCGGTTTTCCCGGTAATCCGTATTTGCA (site TGGAAGTCTTG) | 0 |
| AGGAAGACATGGACCGGTTTTCCCGGTAATCCGTATTTGCA (site TGGATGACTTG) | 0.00459 |
| AGGAAGACATGGACCGGTTTTCCCGGTAATCCGTATTTGCA (site TGGGAGACTTG) | 0 |
| AGGAAGACATGGACCGGTTTTCCCGGTAATCCGTATTTGTA (site AGGAAGACTTA) | 2.74 |
